Several values for one entry are separate records, joined by “and”; a condition that tells them apart may be missing. Identical values can stand only once.
Legend:
Phytophthora infestans = experiment: whole plant or invertebrate; format: in vivo; settings: in Solanum lycopersicum, foliar, read-out: disease control
Plasmopara viticola = experiment: Plasmopara viticola/Grape/Leaf Disc Preventative (Grape Downy Mildew); format: in vivo; settings: foliar, grape vine leaf disks, inoculated 1 day after application, assessed 6-8 days after application, read-out: disease control
Procedure: Plasmopara viticola/Grape/Leaf Disc Preventative (Grape Downy Mildew)
Grape vine leaf disks are placed on water agar in multiwell plates (24-well format) and sprayed with the formulated test compound diluted in water. The leaf disks are inoculated with a spore suspension of the fungus 1 day after application. The inoculated leaf disks are incubated at 19° C. and 80% rh under a light regime of 12 h light/12 h darkness in a climate cabinet and the activity of a compound is assessed as percent disease control compared to untreated when an appropriate level of disease damage appears in untreated check leaf disks (6-8 days after application).

Row | Compound | pest or weed control at 200 ppm (Phytophthora infestans) | pest or weed control at 200 ppm (Plasmopara viticola) | melting point
1 | Cc1cc(C(F)(F)F)nn1CC(=O)N1CCC(c2nc(NC(=O)[C@@H]3CCCc4ccccc43)cs2)CC1 [I.g.001, (R)-1,2,3,4-tetrahydro-naphthalene-1-carboxylic acid (2-{1-[2-(5-methyl-3-trifluoromethyl-pyrazol-1-yl)-acetyl]-piperidin-4-yl}-thiazol-4-yl)amide] | ≥ 80% | ≥ 80% | 175 °C
2 | Cc1cc(C(F)(F)F)nn1CC(=O)N1CCC(c2nc(NC(=O)C3CCCc4ccccc43)cs2)CC1 (centres unmarked) [I.g.011, 1,2,3,4-tetrahydro-naphthalene-1-carboxylic acid (2-{1-[2-(5-methyl-3-trifluoromethyl-pyrazol-1-yl)-acetyl]-piperidin-4-yl}-thiazol-4-yl)amide] | ≥ 80% | ≥ 80% | 179 to 181 °C and 179.2 to 181.3 °C
3 | Cc1cc(C(F)(F)F)nn1CC(=O)N1CCC(c2nc(NC(=O)OC3CCCc4ccccc43)cs2)CC1 (centres unmarked) [I.g.013, (2-{1-[2-(5-methyl-3-trifluoromethyl-pyrazol-1-yl)-acetyl]-piperidin-4-yl}-thiazol-4-yl)-carbamic acid 1,2,3,4-tetrahydro-naphthalen-1-yl ester] | ≥ 80% | ≥ 80% | –
4 | Cc1cc(C(F)(F)F)nn1CC(=O)N1CCC(c2nc(NC(=O)Nc3ccccc3)cs2)CC1 [I.g.024, 1-(2-{1-[2-(5-methyl-3-trifluoromethyl-pyrazol-1-yl)-acetyl]-piperidin-4-yl}-thiazol-4-yl)-3-phenyl-urea] | ≥ 80% | ≥ 80% | 192.6 °C
5 | Cc1ccc(C)c(CC(=O)N2CCC(c3nc(NC(=O)C4CCCc5ccccc54)cs3)CC2)c1 (centres unmarked) [I.g.136, 1,2,3,4-tetrahydro-naphthalene-1-carboxylic acid (2-{1-[2-(2,5-dimethylphenyl)-acetyl]-piperidin-4-yl}-thiazol-4-yl)-amide] | ≥ 80% | – | –
6 | Cc1ccc(C)c(CS(=O)(=O)N2CCC(c3nc(NC(=O)c4ccccc4)cs3)CC2)c1 [I.g.246, N-{2-[1-(2,5-Dimethyl-phenylmethanesulfonyl)-piperidin-4-yl]-thiazol-4-yl}-benzamide] | – | ≥ 80% | 173 to 175 °C
7 | Cc1ccccc1CC(=O)N1CCC(c2nc(NC(=O)C3CCCc4ccccc43)cs2)CC1 (centres unmarked) [I.g.386, 1,2,3,4-tetrahydro-naphthalene-1-carboxylic acid {2-[1-(2-o-tolyl-acetyl)-piperidin-4-yl]thiazol-4-yl}-amide] | ≥ 80% | ≥ 80% | 174 to 175 °C
8 | Cc1cc(C(F)(F)F)nn1CC(=O)N1CCC(c2nc(NC(=O)c3cccc(F)c3O)cs2)CC1 [I.g.501, 3-fluoro-2-hydroxy-N-(2-{1-[2-(5-methyl-3-trifluoromethyl-pyrazol-1-yl)-acetyl]-piperidin-4-yl}-thiazol-4-yl)-benzamide] | ≥ 80% | ≥ 80% | –
9 | Cc1cc(C(F)(F)F)nn1CC(=O)N1CCC(c2nc(NC(=O)c3cccc(Br)c3O)cs2)CC1 [I.g.502, 3-bromo-2-hydroxy-N-(2-{1-[2-(5-methyl-3-trifluoromethyl-pyrazol-1-yl)-acetyl]-piperidin-4-yl}-thiazol-4-yl)-benzamide] | – | – | 193 to 195 °C
10 | Cc1cc(C(F)(F)F)nn1CC(=O)N1CCC(c2nc(NC(=O)c3ccccc3O)cs2)CC1 [I.g.503, 2-hydroxy-N-(2-{1-[2-(5-methyl-3-trifluoromethyl-pyrazol-1-yl)-acetyl]-piperidin-4-yl}-thiazol-4-yl)-benzamide] | ≥ 80% | ≥ 80% | –
11 | Cc1ccc(S(=O)(=O)Nc2ccccc2C(=O)Nc2csc(C3CCN(C(=O)Cn4nc(C(F)(F)F)cc4C)CC3)n2)cc1 [I.g.508, N-(2-{1-[2-(5-methyl-3-trifluoromethyl-pyrazol-1-yl)-acetyl]-piperidin-4-yl}-thiazol-4-yl)-2-(toluene-4-sulfonylamino)-benzamide] | ≥ 80% | ≥ 80% | –
12 | COc1cccc(O)c1C(=O)Nc1csc(C2CCN(C(=O)Cn3nc(C(F)(F)F)cc3C)CC2)n1 [I.g.509, 2-methoxy-6-hydroxy-N-(2-{1-[2-(5-methyl-3-trifluoromethyl-pyrazol-1-yl)-acetyl]-piperidin-4-yl}-thiazol-4-yl)-benzamide] | ≥ 80% | ≥ 80% | –
13 | Cc1cc(C(F)(F)F)nn1CC(=O)N1CCC(c2nc(NC(=O)c3c(O)cccc3F)cs2)CC1 [I.g.510, 2-fluoro-6-hydroxy-N-(2-{1-[2-(5-methyl-3-trifluoromethyl-pyrazol-1-yl)-acetyl]-piperidin-4-yl}-thiazol-4-yl)-benzamide] | ≥ 80% | ≥ 80% | –
14 | COc1cccc(C(=O)Nc2csc(C3CCN(C(=O)Cn4nc(C(F)(F)F)cc4C)CC3)n2)c1O [I.g.511, 3-methoxy-2-hydroxy-N-(2-{1-[2-(5-methyl-3-trifluoromethyl-pyrazol-1-yl)-acetyl]-piperidin-4-yl}-thiazol-4-yl)-benzamide] | ≥ 80% | – | –
15 | Cc1cc(C(F)(F)F)nn1CC(=O)N1CCC(c2nc(N(C)C(=O)C3CCCc4ccccc43)cs2)CC1 (centres unmarked) [I.h.011, 1,2,3,4-tetrahydro-naphthalene-1-carboxylic acid methyl-(2-{1-[2-(5-methyl-3-trifluoromethyl-pyrazol-1-yl)-acetyl]-piperidin-4-yl}-thiazol-4-yl)-amide] | ≥ 80% | – | –
16 | Cc1cc(C(F)(F)F)nn1CC(=O)N1CCN(c2nc(NC(=O)C3CCCc4ccccc43)cs2)CC1 (centres unmarked) [I.n.011, 1,2,3,4-Tetrahydro-naphthalene-1-carboxylic acid (2-{4-[2-(5-methyl-3-trifluoromethyl-pyrazol-1-yl)acetyl]-piperazin-1-yl}-thiazol-4-yl)amide] | ≥ 80% | ≥ 80% | 207 to 209 °C
17 | Cc1cc(C(F)(F)F)nn1CC(=O)N1CCN(c2nc(NC(=O)c3ccccc3)cs2)CC1 [I.n.021, N-(2-{4-[2-(5-methyl-3-trifluoromethyl-pyrazol-1-yl)-acetyl]-piperazin-1-yl}-thiazol-4-yl)-benzamide] | ≥ 80% | ≥ 80% | –
